According to US8227425B2, “Antiviral compounds” (Therapicon Srl, priority 2007, dated 2012):
pIC50: −log10 of the molar value. Read-outs that look alike come from different tables or passages of the source.

Columns and labels:
Experiment in all cases: microbe, parasite or virus in culture
[1] = tested on: A/Panama/2007/99-H3N2; assay type: cell-based, influenza virus type A; details: for pIC50: Influenza A virus, H3N2, MDCK, 72 h, read-out: concentration of the compound necessary to reduce the plaques number to 50% against the control
[2] = tested on: A/NewCaledonia/20/99-H1N1; assay type: cell-based, influenza virus type A; details: for pIC50: Influenza A virus, H1N1, MDCK, 72 h, read-out: concentration of the compound necessary to reduce the plaques number to 50% against the control
[3] = tested on: B/Shandong/7/97; assay type: cell-based; details: for pIC50: Influenza B virus, 72 h, read-out: concentration of the compound necessary to reduce the plaques number to 50% against the control
[4] = MDCK cells, about 50 PFU/ml, 3 days, tested 0.01-100 μM, duplicate

Structure (SMILES)	pIC50 [1]	pIC50 [2]	pIC50 ([3]; MDCK)	antiviral activity relative to amantadine (fold less) [2]	pIC50 [3, 4]	antiviral activity relative to memantine (fold more) [1]	antiviral activity relative to memantine (fold more) [2]	antiviral activity against influenza virus type B in the tested concentration range ([3]; tested 0.01-100 μM, PRA)
NC12CC3CC(CC(C3)C1)C2 [Amantadine, amantadine, reference compound]	5.00	7.00	< 4.00	–	–	–	–	–
CC(=O)NC1C(O)CC(O)(C(=O)O)OC1CNC12CC3CC(CC(C3)C1)C2 (stereo not shown) [Compound 1]	5.00	6.00	–	10 fold	5.00	–	–	–
CC(=O)NC1C(O)CC(O)(C(=O)O)OC1CNC12CC3CC(C)(CC(C)(C3)C1)C2 (stereo not shown) [Compound 8]	5.00	5.00	–	–	< 4.00	~10 fold	~10 fold	Any antiviral activity of Compound 8 has been evidenced
CC12CC3CC(C)(C1)CC(N)(C3)C2 [Memantine, memantine, reference compound]	4.00	4.00	–	–	4.00	–	–	–
